The values below come from patent US9650348B2, “Triazines with suitable spacers for treatment and/or prevention of HIV infections” (Universiteit Antwerpen, priority 2012, dated 2017).

In data set [1] the test system is Ba-L V106A. Briefly: Antiviral activity, NNRTI-resistant virus V106A. Type of data set: cell-based, HIV-1. The following applies: for FC (V106A): Ba-L V106A; for EC50: Human immunodeficiency virus 1, BAL, read-out: Antiviral activity-NNRTI-resistant viruses EC50 Ba-L V106A. As to the method: (§1) The target compounds are evaluated for their anti-HIV-1 activity and cytotoxicity. In a primary screen, the anti-HIV activity against the laboratory strain Ba-L and against a primary subtype C isolate was determined in the TZM-bl cell line. Cellular toxicity on TZM-bl cells was evaluated using WST-1. […] In addition, the activity against NNRTI-resistant viruses (V106A, Y181C, L100I+K103N, L100I+E138K+T369I and K101E+K103N+V108VI+V179M+Y181C+E138Q) was tested. Diarylpyrimidines (DAPY) TMC120, TMC125 and TMC278 were used as reference compounds.

For data set [2], the system named is HIV-1 Ba-L. Briefly: Antiviral activity in peripheral blood mononuclear cells (PBMC), Ba-L. The class given is cell-based. The following applies: Human immunodeficiency virus 1, BAL, Ba-L wild type, read-out: Antiviral activity-wild type viruses EC50 PBMC Ba-L.
The test system of data set [3] is VI829 L100I+E138K+T369I. Briefly: Antiviral activity, NNRTI-resistant virus L100I+E138K+T369I. Type of data set: cell-based, HIV-1. The following applies: for FC (**): VI829, ** = L1001 + E138K + T3691. As to the method:
(§2) The target compounds are evaluated for their anti-HIV-1 activity and cytotoxicity. In a primary screen, the anti-HIV activity against the laboratory strain Ba-L and against a primary subtype C isolate was determined in the TZM-bl cell line. Cellular toxicity on TZM-bl cells was evaluated using WST-1. Based on the primary screening results, the target compound was further evaluated for anti-HIV activity in different primary cells, including peripheral blood mononuclear cells, dendritic cells and CD4+ T lymphocytes. In addition, the activity against NNRTI-resistant viruses (V106A, Y181C, L100I+K103N, L100I+E138K+T369I and K101E+K103N+V108VI+V179M+Y181C+E138Q) was tested. Diarylpyrimidines (DAPY) TMC120, TMC125 and TMC278 were used as reference compounds.

Data set [4] deals with VI829 L100I+K103N. The data set is described as follows: Antiviral activity, NNRTI-resistant virus L100I+K103N. Type of data set: cell-based, HIV-1. As to conditions: for EC50: Human immunodeficiency virus 1, read-out: Antiviral activity-NNRTI-resistant viruses EC50 VI829 L100I+K103N; for FC (L100I+K103N): VI829 L100I+K103N. As to the method:
as §1

For data set [5], the system named is TZM-bl cells. The data set is described as follows: in vitro. Type of data set: cell-based. The following applies: human, 48 h.
Source text: (§3) The Water Soluble Tetrazolium-1 (WST-1) Cell Proliferation Assay is a colorimetric assay for the measurement of cell proliferation and viability. The assay is based on the cleavage of the tetrazolium salt WST-1 (4-[3-(4-iodophenyl)-2-(4-nitrophenyl)-2H-5-tetrazolio]-1,3-benzene disulfonate) to a formazan dye by a complex cellular mechanism. This bioreduction is largely dependent on the glycolytic production of NAD(P)H in viable cells. Therefore, the amount of formazan dye formed correlates directly to the number of viable cells in the culture, and can be quantified by measuring the absorbance at 450 nm in a multiwell plate reader. The greater the number of viable cells, the greater the amount of formazan dye produced following the addition of WST-1. Cytotoxicity of each compound was evaluated using this WST-1 viability assay, according to the manufacturer's instructions (Roche, Vilvoorde, Belgium).
(§4) Briefly, ten thousand TZM-bl cells were seeded in a 96-well plate and cultured for 2 days in the presence of a serial dilution of compound. After this 48 h exposure, Cell Proliferation Reagent, WST-1, was added and absorbance at 450 nm was quantified after 90 min using a microplate reader (BioRad, Tokio, Japan). Each compound was tested in three replicate wells and in at least two independent experiments.
as §1

Data set [6] is described as follows: in vitro. Type of data set: cell-based. As to conditions: human, Cytotoxicity CC50 TZM-bI.
Source text: as §3, §4, §1

Data set [7] concerns VI829. The data set is described as follows: TZM-bl antiviral assay, wild type VI829 (primary subtype C isolate). Type of data set: cell-based, HIV-1. The following applies: Human immunodeficiency virus 1; TZM-bl cells, VI829 wild type; read-out: Antiviral activity-wild type viruses EC50 TZM-bI VI829. The procedure: (§5) The JC53-BL cell line, also known as the TZM-bl cell line (NIH AIDS Research and Reference Reagent Program, Germantown, USA), was used for the evaluation of anti-HIV activity. TZM-bl cells were cultured in Dulbecco's […] (DMEM) (Lonza) containing 10% heat-inactivated FBS and 50 μg gentamycin/mL at 37° C. in a humidified 5% CO2, 95% air environment. Twice a week the cells were treated with 0.25% trypsin-1 mM EDTA (Lonza) for 10 minutes. The resulting cell suspension was washed with an equivalent amount of TZM-bl medium and subsequently seeded in a T75 culture flask (Greiner Bio-One, Germany) at 10^6 cells in 20 mL medium.
(§6) The antiviral activity of the newly designed compounds was measured by pre-incubating ten thousand TZM-bl cells (at 10^5 cells/mL in culture medium supplemented with 30 μg/mL DEAE dextran) in a 96-well plate for 30 minutes at 37° C., 5% CO2 in the presence or absence of serial dilutions of the respective compound. Subsequently, 200 TCID50 of HIV-1 BaL was added to each well and cultures were incubated for 48 hours before quantifying luciferase activity, using a TriStar LB941 luminometer (Berthold Technologies GmbH & Co. KG, Bad Wildbad, Germany). Each condition was evaluated in triplicate wells and in at least two independent experiments. The antiviral activity of the compound was expressed as the percentage of viral inhibition compared to the untreated controls and subsequently plotted against the compound concentration.
as §1

Data set [8] has as its system HIV-1 BaL. The data set is described as follows: TZM-bl antiviral assay, wild type HIV-1 Ba-L. Type of data set: cell-based. As to conditions: Human immunodeficiency virus 1, BAL; TZM-bl cells, Ba-L wild type; read-out: Antiviral activity-wild type viruses EC50 TZM-bI Ba-L. The procedure:
as §5, §6, §1

Data set [9] is described as follows: Partition coefficient (Log D), octanol/PBS. The class given is physicochemical. As to conditions: octanol/PBS pH 7.4. As to the method:
10 mM stock solution (in DMSO) was prepared.
200 μM solution (in DMSO) was prepared from 10 mM stock solution.
A set of 5-10 dilutions (in MeOH) of each compound were prepared from 200 μM solution to give final test concentrations between 1 nm and 2 μM.
MS tuning was done for each compound to find the daughter peaks using 500 nm solution.
Calibration curve was made for each compound to evaluate the linearity of our method.
Octanol was first saturated with PBS and PBS was first saturated with octanol
20 μl of a 10 mM DMSO stock solution was added to 990 μl of PBS (pH 7.4) and then 990 μl of octanol was added. The experiment was done in duplicate. After two hours of shaking at 37° C. and keeping at room temperature for 30 minutes the two layers were separated. After separation, octanol layer was diluted further with MeOH and compound was quantified in both layers by UPLC (waters). The samples were analysed in triplicate.
Where: • ConcINITIAL=Concentration of compound in the initial aqueous solution (PBS) • ConcFINAL=Concentration of compound in final aqueous phase (PBS) • Vaq=Volume of aqueous (PBS) • Voct=Volume of octanol

The test system of data set [10] is VI829 Y181C. The data set is described as follows: Antiviral activity, NNRTI-resistant virus Y181C. Type of data set: cell-based, HIV-1. The following applies: for EC50: Human immunodeficiency virus 1, read-out: Antiviral activity-NNRTI-resistant viruses EC50 VI829 Y181C; for FC (Y181C): VI829 Y181C. As to the method:
as §1

The test system of data set [11] is Ba-L K101E + K103N + V108VI + V179M + Y181C + E138Q. The data set is described as follows: Antiviral activity, NNRTI-resistant virus K101E+K103N+V108VI+V179M+Y181C+E138Q. Type of data set: cell-based, HIV-1. As to conditions: for FC (*): Ba-L, * = K101E + K103N + V108VI + V179M + Y181C + E138Q; for EC50: Human immunodeficiency virus 1, BAL, read-out: Antiviral activity-NNRTI-resistant viruses EC50 Ba-L *. The procedure:
as §2

In data set [12] the test system is HIV-1 Ba-L. The data set is described as follows: Antiviral activity in dendritic cells / CD4+ T lymphocytes (DC/T4), Ba-L. Type of data set: cell-based. The following applies: Human immunodeficiency virus 1, BAL; DC/T4, Ba-L wild type; read-out: Antiviral activity-wild type viruses EC50 DC/T4 Ba-L.

Regarding `Cc1cc(C)c(Nc2ccnc(Nc3ccc(C#N)cc3)n2)c(C)c1` [TMC120, reference compound], in [1], the “FC (V106A)” value turned out to be 1. Besides, the EC50 in data set [1] is 2.5 nM; in data set [2], 5.1 nM; in data set [4], 674 nM; in [7], 2 nM; in data set [8], 2 nM; in [10], 10.8 nM. Besides, the EC50 in [11] is > 1000 nM; in [12] it was 1.6 nM. The “activity against NNRTI-resistant virus L100I+E138K+T369I, in words” value in data set [3] (L100I+E138K+T369I) is recorded as “no activity”. Moreover, the “FC (**)” value in [3] was >500. In [4] (L100I+K103N), the “activity against Efavirenz resistant viruses (L100I+K103N), in words” value is “high nanomolar activity”. Besides, the “FC (L100I+K103N)” value in data set [4] came out at 337. Further, in data set [5], the CC50 (commonly the concentration giving 50% cytotoxicity) was < 5000 nM. The molecule further came in with a CC50 at 48 h in data set [6] of 2880 nM. Further, the logD (as a rule, lipophilicity at a set pH, counting ionised and neutral species) at 2 h in data set [9] was > 5. Also, the “FC (Y181C)” value in data set [10] was determined as 5. For the same molecule, the “FC (*)” value in data set [11] was >500. The “activity against NNRTI-resistant virus K101E+K103N+V108VI+V179M+Y181C+E138Q, in words” value in data set [11] (K101E+K103N+V108VI+V179M+Y181C+E138Q) was “no activity”.
Regarding `Cc1cc(/C=C/C#N)cc(C)c1Nc1ccnc(Nc2ccc(C#N)cc2)n1` [TMC278, Rilpivirine, reference compound], in data set [1], the “FC (V106A)” value was determined as 1. In addition, the EC50 in data set [1] was found to be 0.93 nM; in data set [2], 5.2 nM; in [4], 3.6 nM; in [7], 1 nM; in [8] it was 0.72 nM; in data set [10], 2.5 nM. The EC50 in data set [11] came to 27 nM; in data set [12] it was 1.6 nM. In [3], the “FC (**)” value is on record as 130. In addition, in data set [4], the “FC (L100I+K103N)” value is on record as 4. In data set [5], this molecule yielded a CC50 of 7740 nM. The CC50 at 48 h in data set [6] was < 10000 nM. The molecule further returned a logD at 2 h in data set [9] of 4. The “FC (Y181C)” value in data set [10] is 3. Further, the “FC (*)” value in [11] is reported as 38.
